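How tested: cells in 96-well plates exposed to compound for 48 hours at five concentrations. GI50 marks 50% less growth.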 The source made the active and inactive calls. No stated cut-off is given here; in the data, active = GI50 up to about 1.1 µM and inactive = higher.
Tests used:
Experiment in all cases: NCI-60 cell line screen, 48 h
U-251 = test system: U-251
786-0 = test system: 786-0
T47D = test system: T47D
Hs-578T = test system: Hs-578T
ACHN = test system: ACHN
HCT-15 = test system: HCT-15
HT-29 = test system: HT-29
PC-3 = test system: PC-3
MDA-N = test system: MDA-N
MDA-MB-231 = test system: MDA-MB-231
RXF 393 = test system: RXF 393
NCI/ADR-RES = test system: NCI/ADR-RES
NCI-H460 = test system: NCI-H460
HCC 2998 = test system: HCC 2998
SW-620 = test system: SW-620

Row | SMILES | GI50 (U-251) | GI50 (786-0) | GI50 (T47D) | GI50 (Hs-578T) | GI50 (ACHN) | GI50 (HCT-15) | GI50 (HT-29) | GI50 (PC-3) | GI50 (MDA-N) | GI50 (MDA-MB-231) | GI50 (RXF 393) | GI50 (NCI/ADR-RES) | GI50 (NCI-H460) | GI50 (HCC 2998) | GI50 (SW-620)
1 | CN1C(=O)N(C)C2(CCN(CC(CC3OCCO3)c3ccc(F)cc3)CC2)C1=O (stereo not drawn) | > 100 µM (inactive) | > 100 µM (inactive) | > 100 µM (inactive) | > 100 µM (inactive) | > 100 µM (inactive) | > 100 µM | > 100 µM (inactive) | > 100 µM (inactive) | > 100 µM (inactive) | > 100 µM (inactive) | > 100 µM (inactive) | > 100 µM (inactive) |  |  | 
2 | C/C(C[n+]1ccccc1)=N\N=C(N)N | > 100 µM (inactive) | > 100 µM (inactive) | > 100 µM (inactive) | > 100 µM (inactive) | > 100 µM (inactive) | > 100 µM | > 100 µM (inactive) | > 100 µM (inactive) | > 100 µM (inactive) | > 100 µM (inactive) | > 100 µM (inactive) | > 100 µM (inactive) | > 100 µM (inactive) | > 100 µM (inactive) | > 100 µM (inactive)
3 | C[Si](C)(N[Si](C)(C)OCCc1ccccc1)OCCc1ccccc1 | > 100 µM (inactive) | > 100 µM (inactive) | > 100 µM (inactive) |  | > 100 µM (inactive) | > 100 µM | > 100 µM (inactive) | > 100 µM (inactive) | > 100 µM (inactive) |  | > 100 µM (inactive) | > 100 µM (inactive) | > 100 µM (inactive) | > 100 µM (inactive) | > 100 µM (inactive)
4 | N#CC1(C#N)C(c2ccccc2)NC23CCCCC2C1(C#N)C(=O)N3 (stereo not drawn) | > 100 µM (inactive) | > 100 µM (inactive) | > 100 µM (inactive) |  | > 100 µM (inactive) | > 100 µM | > 100 µM (inactive) | > 100 µM (inactive) | > 100 µM (inactive) | > 100 µM (inactive) | > 100 µM (inactive) | > 100 µM (inactive) | > 100 µM (inactive) | > 100 µM (inactive) | > 100 µM (inactive)
5 | O=C(CCc1ccc(O)cc1)NCCc1cccc(O)c1 | > 50 µM (inactive) | > 50 µM (inactive) | > 50 µM (inactive) | > 50 µM (inactive) | > 50 µM (inactive) | > 50 µM | > 50 µM (inactive) | > 50 µM (inactive) | > 50 µM (inactive) | > 50 µM (inactive) | > 50 µM (inactive) | > 50 µM (inactive) | > 50 µM (inactive) |  | 
6 | O=C(O)C(CSC(c1ccccc1)(c1ccccc1)c1ccccc1)/N=C/c1cccs1 (stereo not drawn) | 2 µM (inactive) | 1.17 µM (inactive) | 3.37 µM (inactive) | 3.2 µM (inactive) | 12.8 µM (inactive) | 4.24 µM | 2.96 µM (inactive) | 1.89 µM (inactive) | 0.357 µM (active) | 1.57 µM (inactive) | 2.07 µM (inactive) | 14 µM (inactive) | 3.16 µM (inactive) | 2.06 µM (inactive) | 1.76 µM (inactive)
7 | Cc1cc(C)c2c(O)cc(-c3cccc4ccccc34)nc2n1 | 0.426 µM (active) | 0.612 µM (active) | 24.4 µM (inactive) | 1.09 µM (active) | 0.594 µM (active) | 0.468 µM | 0.363 µM (active) | 0.641 µM (active) | 0.218 µM (active) | 2.22 µM (inactive) | 0.746 µM (active) | 0.52 µM (active) | 0.653 µM (active) | 1.14 µM (inactive) | 0.448 µM (active)
8 | CC[n+]1c(-c2ccccc2)c2cc(N)ccc2c2ccc(N)cc21 [HOMIDIUM BROMIDE] | 4.38 µM (inactive) |  | 1.93 µM (inactive) | < 0.01 µM (active) | 19 µM (inactive) | 55.5 µM | 3.67 µM (inactive) | 5.06 µM (inactive) | 4.2 µM (inactive) | 8.55 µM (inactive) | 5.68 µM (inactive) | > 100 µM (inactive) | 5.06 µM (inactive) | 4.79 µM (inactive) | 3.67 µM (inactive)
9 | NC(CP(=O)(O)O)C(=O)O (stereo not drawn) | > 100 µM (inactive) | > 100 µM (inactive) | > 100 µM (inactive) | > 100 µM (inactive) | > 100 µM (inactive) | > 100 µM | > 100 µM (inactive) | > 100 µM (inactive) | > 100 µM (inactive) | > 100 µM (inactive) | > 100 µM (inactive) | > 100 µM (inactive) | > 100 µM (inactive) | > 100 µM (inactive) | > 100 µM (inactive)
10 | CC(Cc1ccccc1)NC1=NCCO1 (stereo not drawn) | 25.1 µM (inactive) |  | 35.1 µM (inactive) | 29.3 µM (inactive) | 46 µM (inactive) | 96.4 µM | 20.1 µM (inactive) | 34.8 µM (inactive) | 25.9 µM (inactive) | 16.2 µM (inactive) | 52.5 µM (inactive) |  | 17.9 µM (inactive) | 27.6 µM (inactive) | 34.3 µM (inactive)
11 | O=C(C1=C(C(=O)c2ccccc2)SC2(S1)C(C(=O)c1ccccc1)=C(C(=O)c1ccccc1)Sc1c2ssc1=O)c1ccccc1 | 32.6 µM (inactive) | 31.1 µM (inactive) | 97.7 µM (inactive) | > 100 µM (inactive) | 37.5 µM (inactive) | 64.9 µM | > 100 µM (inactive) | > 100 µM (inactive) | 41.1 µM (inactive) | 78.9 µM (inactive) | 34.8 µM (inactive) | > 100 µM (inactive) | 31.5 µM (inactive) | 55.8 µM (inactive) | 22 µM (inactive)
12 | COc1ccc(C[C@H]2COC(=O)[C@@H]2Cc2cccc(Br)c2)cc1OC | 26.4 µM (inactive) | 28.1 µM (inactive) | 27.7 µM (inactive) | 32.3 µM (inactive) | 18.6 µM (inactive) | 29.7 µM | 21.8 µM (inactive) | 15.8 µM (inactive) | 20.7 µM (inactive) | 19.1 µM (inactive) | 23.6 µM (inactive) | 24.2 µM (inactive) | 26.2 µM (inactive) | 24.5 µM (inactive) | 22.5 µM (inactive)
13 | CCc1ccc2nc(-c3ccc(O)cc3)sc2c1 | 17.7 µM (inactive) |  |  |  | 17.7 µM (inactive) | 15.1 µM | 16.6 µM (inactive) | 12.6 µM (inactive) | 18.5 µM (inactive) | 13.2 µM (inactive) |  | 13.5 µM (inactive) | 21.1 µM (inactive) |  | 20.6 µM (inactive)
14 | Nc1ccc(S(=O)(=O)c2ccc(NCN3C(=O)NC(=O)C(=O)C3=O)cc2)cc1 [ALLANTODAPSONE] | > 100 µM (inactive) | > 100 µM (inactive) | > 100 µM (inactive) | > 100 µM (inactive) | > 100 µM (inactive) | > 100 µM | > 100 µM (inactive) | > 100 µM (inactive) | > 100 µM (inactive) | > 100 µM (inactive) | > 100 µM (inactive) | > 100 µM (inactive) | > 100 µM (inactive) | > 100 µM (inactive) | > 100 µM (inactive)
15 | O=C(Nc1nccs1)c1c(O)nc2sccn2c1=O | > 10 µM (inactive) |  | > 10 µM (inactive) | > 10 µM (inactive) | > 10 µM (inactive) | > 10 µM | > 10 µM (inactive) | > 10 µM (inactive) | > 10 µM (inactive) | > 10 µM (inactive) | > 10 µM (inactive) | > 10 µM (inactive) | > 10 µM (inactive) | > 10 µM (inactive) | > 10 µM (inactive)

Source: ChEMBL document CHEMBL1201862, “PubChem BioAssay data set” (2004)
